Measured values: US11351176B2, “Combination therapy” (MEI Pharma, Inc., priority 2017, dated 2022)

Tests used:
[1] = tested on: relapsed B-cell Non-Hodgkin's Lymphoma (NHL), including Chronic Lymphocytic Leukemia (CLL); test: Phase 1b study of Compound A35 and rituximab in patients with relapsed B-cell malignancies; format: in vivo, human
Experimental: Study of a Combination of a PI3K Inhibitor and a CD20 Inhibitor in Patients with Relapsed B-Cell Non-Hodgkin's Lymphoma (NHL), Including Chronic Lymphocytic Leukemia (CLL)
The purpose of this study is to evaluate the safety and effectiveness of Compound A35 (single dose: 60 mg/day) and rituximab, in patients with relapsed B-cell malignancies.
• Study Type: Interventional • Study Design: Intervention Model: Single Group Assignment • Masking: No masking • Primary Purpose: Treatment
Primary Outcome Measures: • Determine Acceptable Adverse Events That Are Related to Treatment [Time Frame: 6 months of therapy]. To determine the incidence of adverse events, any potential abnormal laboratory results and any dose-limiting toxicities Secondary Outcome Measures: • Efficacy of Compound A35 with Rituximab as assessed by Overall Response (OR) [Time Frame: 2 years]. The efficacy of Compound A35 with Rituximab will be determined by the overall response of subjects calculated as the percent of subjects achieving a complete remission (CR) or a complete remission with incomplete marrow recovery (CRi) or a partial response (PR) according to the International Workshop on Chronic Lymphocytic Leukemia (IWCLL). • Evaluate the PK of Compound A35 with Rituximab (AUC) [Time Frame: 2 years] Determined by the Area Under the Concentration time curve (AUC) • Evaluate the PK of Compound A35 with Rituximab (Cmax) [Time Frame: 2 years] Determined by Peak Plasma Concentration (Cmax)
Eligibility • Ages Eligible for Study: 18 Years and older (Adult, Senior) • Sexes Eligible for Study: All • Accepts Healthy Volunteers: No Criteria Inclusion Criteria: • Diagnosis of relapsed/refractory CLL SLL or FL, MZL, DLBCL and high-grade B-cell lymphoma.
Dosing of Compound A35 is done on a continuous dosing schedule (CS) or an intermittent dosing schedule (IS). On an IS, patients take 60 mg administered once a day on 7 consecutive days followed by 21 days without therapy, with cycles repeated every 28 days. On a CS, patients take 60 mg/day for the entirety of a 28 day cycle. All patients are started on a CS dosing regimen. Patients who complete two cycles of CS are switched to the IS.
In all cases, the dosing of rituximab is 375 mg/m2, administered for a total of 8 doses in 6 months.
15 patients were treated with a regimen consisting of rituximab 375 mg/m^2×8 doses over 6 months and Compound A35 at 60 mg on the CS for 2 cycles then switching to the IS.

[2] = tested on: relapsed chronic lymphocytic leukemia (CLL); settings: combination of idelalisib and a CD20 inhibitor (e.g., rituximab or ofatumumab); cited from earlier work

Compound | response (patients with a reported response) ([1]; in combination with rituximab 375 mg/m2 x 8 doses in 6 months, Compound A35 60 mg/day continuous schedule (CS), indolent NHL (9 FL, 1 MZL), 7 of 10 patients) | disease progression on the IS among patients with a disease response after 2 cycles ([1]; in combination with rituximab, 8 responders, median follow-up 5.2 months from enrollment) | patients with disease progression, discontinued from the study ([1]; in combination with rituximab, CS of Compound A35 60 mg/day, indolent NHL, 10 patients) | rate of response (in words) ([1]; in combination with rituximab, CS, patients) | patients discontinued due to disease progression ([1]; in combination with rituximab, Compound A35 60 mg/day, DLBCL, 4 patients) | response (patients with a reported response) ([1]; in combination with rituximab, Compound A35 60 mg/day, DLBCL, 1 of 4 patients) | patients who developed delayed immune-related toxicity ([1]; in combination with rituximab, after 2 cycles CS switched to intermittent schedule (IS, 60 mg 7 days on/21 days off), 1/10 patients, median follow-up 3.4 months on the IS) | effect of the IS on delayed onset immune toxicities and efficacy (in words) ([1]; in combination with rituximab, intermittent schedule after 2 CS cycles, preliminary data) | rate of response (in words) ([1]; in combination with rituximab, patients with relapsed indolent NHL and CLL/SLL) | durability of responses (in words) ([1]; in combination with rituximab, relapsed indolent NHL and CLL/SLL) | risk of death due to infection and/or severe adverse effects (in words) [2]
CN1CCC(c2ccccc2CC(C)(C)Nc2nc(N3CCOCC3)nc(-n3c(C(F)F)nc4ccccc43)n2)CC1 [Compound A35] | 70% | none | 1 patient | very high rate of response | 3 patients | 25% | 10% | appears to reduce the incidence of delayed onset immune toxicities without erosion in treatment efficacy | very high rate of response | appear durable | –
CC[C@H](Nc1ncnc2[nH]cnc12)c1nc2cccc(F)c2c(=O)n1-c1ccccc1 [idelalisib] | – | – | – | – | – | – | – | – | – | – | alarming increase in the risk of death due to infection and/or severe adverse effects
